Results from patent publication US10111437B2, “Substituted guanidines as fungicides” (Nippon Soda Co., Ltd., priority 2015, dated 2018).
Where a name gives a salt, the structure may show the parent alone.

Tests used:
[1] = test system: wheat leaf rust fungus (Puccinia recondita); assay: Wheat leaf rust control test (foliar spray on wheat seedlings); assay type: in vivo; conditions: 240 h, 125 ppm active ingredient, sprayed on wheat seedlings (variety Norin 61) before inoculation, 10 days, vs untreated
[2] = test system: Apple scab fungus (Venturia inaequalis); assay: Apple scab control test (foliar spray on apple seedlings); assay type: in vivo; conditions: 125 ppm active ingredient, sprayed on apple seedlings (variety Orin) before inoculation, vs untreated
Procedure: The dilution was sprayed to apple seedlings (variety “Orin”, 3 to 4 leaf stage) grown in clay pots. […] The control value was calculated by the following equation. [formula]

[3] = test system: cucumber gray mold fungus (Botrytis cinerea); assay: Cucumber gray mold control test (foliar spray on cucumber seedlings); conditions: in Cucumis sativus, 96 h, read-out: control value
[4] = test system: Tomato late blight fungus (Phytophthora infestans); assay: whole plant or invertebrate; assay type: in vivo; conditions: foliar, 96 h, read-out: control value

Row | SMILES | melting point [°C] | pest or weed control at 125 ppm [1] [%] | pest or weed control at 125 ppm [2] [%] | pest or weed control at 125 ppm [3] [%] | pest or weed control at 125 ppm [4] [%]
1 | N=C(N)c1ccc(OCCCCn2ccn(CCCCOc3ccc(C(=N)N)cc3)c2=N)cc1 (as salt: hydrochloride) [compound 36, 4-[4-[3-[4-(4-carbamimidoylphenoxy)butyl]-2-imino-imidazol-1-yl]butoxy]benzamidine] | 178 to 180 | – | – | – | –
2 | N=C(NCCCc1cc2cc(C(=N)N)ccc2o1)NCCCc1cc2cc(C(=N)N)ccc2o1 (as salt: hydrochloride) [compound 80] | 174 to 182 | – | – | – | –
3 | N=C(NCCCOc1ccc(C(=N)N)c(F)c1)NCCCOc1ccc(C(=N)N)c(F)c1 (as salt: hydrochloride) [compound 82] | 181 to 185 | – | – | – | –
4 | Cc1cc(C(=N)N)ccc1OCCCCNC(=N)NCCCCOc1ccc(C(=N)N)cc1C (as salt: hydrochloride) [compound 84] | 171 to 180 | – | – | – | –
5 | N=C(N)c1ccc(OCCCCCn2ccn(CCOc3ccc(C(=N)N)cc3)c2=N)cc1 (as salt: hydrochloride) [compound 93] | 183 to 187 | – | – | – | –
6 | N=C(N)c1ccc(OCCCn2ccn(CCCOc3ccc(C(=N)N)cc3Cl)c2=N)c(Cl)c1 (as salt: hydrochloride) [compound 99] | 184 to 190 | – | – | – | –
7 | N=C(N)c1ccc(OCCCn2ccn(CCCOc3ccc(C(=N)N)c(F)c3)c2=N)cc1F (as salt: hydrochloride) [compound 103] | 183 to 187 | – | – | – | –
8 | Cc1c(C)n(CCCOc2ccc(C(=N)N)cc2)c(=N)n1CCCOc1ccc(C(=N)N)cc1 (as salt: hydrochloride) [compound 109] | 188 to 199 | – | – | – | –
9 | Cc1cn(CCCOc2ccc(C(=N)N)cc2)c(=N)n1CCCOc1ccc(C(=N)N)cc1 (as salt: hydrochloride) [compound 114] | 182 to 186 | – | – | – | –
10 | N=C(N)c1ccc(OCCCn2ccn(CCCc3cc4cc(C(=N)N)ccc4o3)c2=N)cc1 (as salt: hydrochloride) [compound 126] | 227 to 236 | – | – | – | –
11 | N=C(NCC/C=C/c1ccc(C(=N)N)cc1)NCC/C=C/c1ccc(C(=N)N)cc1 (as salt: hydrochloride) [compound 151] | 179 to 181 | – | – | – | –
12 | N=C(NCC#Cc1ccc(C(=N)N)cc1)NCC#Cc1ccc(C(=N)N)cc1 (as salt: hydrochloride) [compound 155] | 220 | – | – | – | –
13 | N=C(N)c1ccc(OCCCn2ccn(CCCSc3ccc(C(=N)N)cc3)c2=N)cc1 (as salt: hydrochloride) [compound 173] | 168 to 171 | – | – | – | –
14 | N=C(N)c1ccc(SCCCn2ccn(CCCSc3ccc(C(=N)N)cc3)c2=N)cc1 (as salt: hydrochloride) [compound 181] | 169 to 172 | – | – | – | –
15 | N=C(NCCOCc1ccc(C(=N)N)cc1)NCCOCc1ccc(C(=N)N)cc1 (as salt: hydrochloride) [compound 226] | 262 to 267 | – | – | – | –
16 | N=C(NCCCOCc1ccc(C(=N)N)cc1)NCCCOc1ccc(C(=N)N)cc1 (as salt: trifluoroacetate) [compound 143] | 192 to 197 | – | – | – | –
17 | N/C(=N\O)c1ccc(OCCCn2ccn(CCCOc3ccc(/C(N)=N/O)cc3)c2=NC(=O)C(F)(F)F)cc1 [compound 55, N-[1,3-bis[3-[4-[N′-hydroxycarbamimidoyl]phenoxy]propyl]-1,3-dihydro-2H-imidazol-2-ylidene]-2,2,2-trifluoroacetamide] | 187 to 201 | – | – | – | –
18 | N=C(N)NCCCCCCCCNC(=N)NCCCOc1ccc(C2=NCCCN2)cc1 [compound 192] | – | ≥ 75 | ≥ 75 | ≥ 75 | ≥ 75
19 | N=C(NCCCCOc1ccc(C(=N)N)cc1)NCCCCOc1ccc(C(=N)N)cn1 [compound 194] | – | ≥ 75 | ≥ 75 | ≥ 75 | ≥ 75
20 | N=C(N)NCCCCCCCCNC(=N)NCCOCc1ccc(C(=N)N)cc1 [compound 200] | – | ≥ 75 | ≥ 75 | ≥ 75 | ≥ 75
21 | N=C(N)NCCCCCCCn1ccn(CCCOc2ccc(C3=NCCCN3)cc2)c1=N [compound 206] | – | ≥ 75 | ≥ 75 | ≥ 75 | ≥ 75

Row | SMILES | melting point [°C] | pest or weed control at 125 ppm [1] [%] | pest or weed control at 125 ppm [2] [%] | pest or weed control at 125 ppm [3] [%] | pest or weed control at 125 ppm [4] [%]
22 | N=C(N)NCCCCCCCCNC(=N)NCCOCc1ccc(C2=NCCCN2)cc1 [compound 220] | – | ≥ 75 | ≥ 75 | ≥ 75 | ≥ 75
23 | N=C(N)NCCCCCCCCNC(=N)NCCCOCc1ccc(C2=NCCCN2)cc1 [compound 222] | – | ≥ 75 | ≥ 75 | ≥ 75 | ≥ 75
24 | N=C(N)NCCCCCCCNC(=N)NCCOCc1ccc(C(=N)N)cc1 [compound 228] | – | ≥ 75 | ≥ 75 | ≥ 75 | ≥ 75
25 | N=C(N)NCCCCCCCCNC(=N)NCCCOc1ccc(C(=N)N)cc1 [compound 230] | – | ≥ 75 | ≥ 75 | ≥ 75 | ≥ 75
26 | N=C(N)NCCCCCCCCCNC(=N)NCCOc1ccc(C(=N)N)cc1 [compound 234] | – | ≥ 75 | ≥ 75 | ≥ 75 | ≥ 75
27 | N=C(N)NCCCCCCCCNC(=N)NCCOc1ccc(C2=NCCCN2)cc1 [compound 240] | – | ≥ 75 | ≥ 75 | ≥ 75 | ≥ 75
28 | N=C(N)NCCCCCCCCCNC(=N)NCCOc1ccc(C2=NCCCN2)cc1 [compound 242] | – | ≥ 75 | ≥ 75 | ≥ 75 | ≥ 75
29 | N=C(N)NCCCCCCCCNC(=N)NCCCCOc1ccc(C2=NCCN2)cc1 [compound 246] | – | ≥ 75 | ≥ 75 | ≥ 75 | ≥ 75
30 | N=C(N)NCCCCCCCCNC(=N)NCCCCOc1ccc(C2=NCCCCN2)cc1 [compound 254] | – | ≥ 75 | ≥ 75 | ≥ 75 | ≥ 75
31 | CC1(C)CNC(c2ccc(OCCCCNC(=N)NCCCCCCCCNC(=N)N)cc2)=N1 [compound 256] | – | ≥ 75 | ≥ 75 | ≥ 75 | ≥ 75
32 | N=C(N)NCCCCCCCCNC(=N)N1CCC(Oc2ccc(C3=NCCCN3)cc2)CC1 [compound 264] | – | ≥ 75 | ≥ 75 | ≥ 75 | ≥ 75
33 | N=C(N)NCCCCCCCCNC(=N)NCCc1ccc(C2=NCCCN2)cc1 [compound 266] | – | ≥ 75 | ≥ 75 | ≥ 75 | ≥ 75
34 | N=C(N)NCCCCCCCCNC(=N)NCCCc1ccc(C2=NCCCN2)cn1 [compound 273] | – | ≥ 75 | ≥ 75 | ≥ 75 | ≥ 75
35 | N=C(N)NCCCCCCCCNC(=N)NCCCCOc1ccc(C2=NCCCN2)cn1 [compound 275] | – | ≥ 75 | ≥ 75 | ≥ 75 | ≥ 75
36 | N=C(N)NCCCCCCCNC(=N)NCCCCOc1ccc(C2=NCC(N)CN2)cc1 (stereo not drawn) [compound 277] | – | ≥ 75 | ≥ 75 | ≥ 75 | ≥ 75
37 | N=C(N)NCCCCCCCCNC(=N)NCCCCOc1ccc(C2=NCC(N)CN2)cc1 (stereo not drawn) [compound 279] | – | ≥ 75 | ≥ 75 | ≥ 75 | ≥ 75
38 | N=C(N)NCCCCCCCCNC(=N)NCCOc1ccc(C2=NCC(N)CN2)cc1 (stereo not drawn) [compound 285] | – | ≥ 75 | ≥ 75 | ≥ 75 | ≥ 75
39 | N=C(N)NCCCCCCCCNC(=N)NCCOc1ccc(C2=NCCCN2)nc1 [compound 288] | – | ≥ 75 | ≥ 75 | ≥ 75 | ≥ 75
40 | N=C(NCCCCCCCCNC1=NCCN1)NCCCOc1ccc(C(=N)N)cc1 [compound 298] | – | ≥ 75 | ≥ 75 | ≥ 75 | ≥ 75
41 | CN1CCCN=C1c1ccc(OCCNC(=N)NCCCCCCCCNC(=N)N)cc1 [compound 300] | – | ≥ 75 | ≥ 75 | ≥ 75 | ≥ 75
42 | N=C(N)NCCCCCCCCn1ccn(CCOc2ccc(C3=NCC(N)CN3)cc2)c1=N (stereo not drawn) [compound 302] | – | ≥ 75 | ≥ 75 | ≥ 75 | ≥ 75
